According to patent US5298494A, “Monosaccharides having anti-proliferation and anti-inflammatory activity, compositions and uses thereof” (Greenwich Pharmaceuticals Incorporated, priority 1993, dated 1994):
Read-outs that look alike come from different tables or passages of the source.

Tests used:
[1] = tested on: T lymphocytes (normal mouse spleen cells) stimulated with ConA; test: Mouse Spleen Cell ConA Blastogenesis Assay; assay type: cell-based, mouse (C57Bl/6); details: Mus musculus, T-lymphocyte; for inhibition at 0.1 µg/mL: compound 0.1 ug/ml; for inhibition at 1 µg/mL: compound 1 ug/ml; for inhibition at 2.5 µg/mL: compound 2.5 ug/ml; for inhibition at 10 µg/mL: compound 10 ug/ml; for inhibition at 25 µg/mL: compound 25 ug/ml; for inhibition at 100 µg/mL: compound 100 ug/ml
[2] = tested on: T cell proliferation in mouse spleen cell mixed lymphocyte cultures; test: Mixed Lymphocyte Reaction (MLR) assay; assay type: cell-based, mouse (Balb/c responder, C57B1/6 stimulator); details: for inhibition at 3 µM / inhibition at 10 µM / inhibition at 30 µM / inhibition at 100 µM / inhibition at 300 µM: Mus musculus, Lymphocyte, read-out: % Change From Control, MLR
From the text: The pharmacologic assays performed to determine the immunomodulatory effects of the experimental compounds in vitro include the Mixed Lymphocyte Reaction (MLR) and the ConA blastogenesis assay. These assays were used to determine the inhibitory effects of the compounds of the invention on T lymphocyte activation and proliferation. Since inflammation at the cellular level is characterized by T lymphocyte recruitment, activation and proliferation, these assays are appropriate to use as screens for novel compounds having therapeutic potential in the treatment of disorders in which inflammatory mechanisms are involved.
The MLR is a classical assay used to measure T cell function by studying the proliferative response of T cells which are activated in vitro by genetically disparate stimulator cells. This is accomplished by co-culturing spleen cells from two different strains of mice. Splenic T cell proliferation occurs as a result of cellular activation signals generated by the ongoing cellular interactions.
Balb/c mice were euthanised by cervical dislocation and their spleens removed. Single cell suspensions of the spleens were prepared in culture medium (hepes buffered RPMI-1640 supplemented with 10% fetal calf serum, 2mM glutamine, 500 units penicillin/ streptomycin, and 4×10^-5 M 2-mercaptoethanol) using a Teflon pestle. The cells were centrifuged at 1500 rpm and the pellets resuspended in ACT (0.15M tris, 0.14M ammonium chloride, pH 7.2) in order to lyse the red blood cells. After a 5 minute incubation in a 37 C. waterbath, the cells were resuspended in culture medium and counted. C57B1/6 spleen cells which were used as stimulator cells, were also prepared by this method. The stimulator cells were treated with 100 ug/ml of mitomycin c for 1 hour at 37 C. (to inhibit stimulatory cell proliferation) and were then washed 5 times in culture medium. The proliferative responses were measured by culturing 2.5×10^5 responder cells with 5×10^5 stimulatory cells in 96 well microtiter plates in the presence or absence of various doses of test compounds or vehicle (DMSO). Syngeneic control cultures using mitomycin c treated Balb/c spleen cells as stimulator cells were also run. All cultures were run in triplicate.
Solutions of compounds of the present invention in DMSO were prepared at a stock concentration of 120 Mm. Dilutions were made in culture medium to the following concentrations: 3, 10, 30, 100, and 300 uM. The vehicle (DMSO) was used as a negative control.
After incubation of for 5 days at 37 C. with 5% CO2, the amount of cell proliferation was measured by adding 20 ul of MTT (3-[4,5-dimethylthiazol-2-yl]-2,5diphenyl-tetrazolium bromide) (10 mg/ml in phosphate buffered saline) to each well. Plates were incubated for 4 hours at 37 C., after which 180 ul of 10% sodium dodecyl sulphate in phosphate buffered saline was added. After an overnight incubation, the optical density (OD) of each well was read on a Molecular Devices microplate reader at 570-650 nm. The results were determined by calculating the difference between the means of the allogeneic cultures and the means of the syngenic cultures for each test article concentration. Differences of the test article groups were compared to the control group and the percent change from the control was determined.

[3] = ConA 1 ug/ml, 0.01 ug/ml, read-out: % Change from Control (Table II)
[4] = ConA 1 ug/ml, compound 0.01 ug/ml, read-out: % change from control, ConA blastogenic response
[5] = ConA 1 ug/ml, read-out: % change from control, ConA blastogenic response
[6] = ConA 4 ug/ml, 0.01 ug/ml, read-out: % Change from Control (Table II)
[7] = ConA 4 ug/ml, compound 0.01 ug/ml, read-out: % change from control, ConA blastogenic response
[8] = ConA 4 ug/ml, read-out: % change from control, ConA blastogenic response

| Compound | inhibition at 0.01 µg/mL [1, 3] [%] | inhibition at 0.01 µg/mL [1, 4] [%] | inhibition at 0.1 µg/mL [1, 5] [%] | inhibition at 1 µg/mL [1, 5] [%] | inhibition at 2.5 µg/mL [1, 5] [%] | inhibition at 10 µg/mL [1, 5] [%] | inhibition at 25 µg/mL [1, 5] [%] | inhibition at 100 µg/mL [1, 5] [%] | inhibition at 0.01 µg/mL [1, 6] [%] | inhibition at 0.01 µg/mL [1, 7] [%] | inhibition at 0.1 µg/mL [1, 8] [%] | inhibition at 1 µg/mL [1, 8] [%] | inhibition at 2.5 µg/mL [1, 8] [%] | inhibition at 10 µg/mL [1, 8] [%] | inhibition at 25 µg/mL [1, 8] [%] | inhibition at 100 µg/mL [1, 8] [%] | Mean O.D. Allogenic ([2]; 3 um) [O.D.] | Mean O.D. Syngeneic ([2]; 3 um) [O.D.] | Mean O.D. Allogenic ([2]; 10 um) [O.D.] | Mean O.D. Syngeneic ([2]; 10 um) [O.D.] | also measured |
| --- | --- | --- | --- | --- | --- | --- | --- | --- | --- | --- | --- | --- | --- | --- | --- | --- | --- | --- | --- | --- | --- |
| CCCCC/C=C\COC[C@H]1O[C@@]2(OC)COC(C)(C)O[C@H]2[C@@H]1OC/C=C\CCCCC [If, methyl 1,3-O-isopropylidene-4,6-di-O-(cis,2-octenyl)-α-D-fructofuranoside] | 8 | -6 | 2 | 14 | 25 | 74 | 85 | 4 | 4 | 0 | 23 | 26 | 42 | 79 | 87 | 88 | 0.195 | 0.140 | 0.199 | 0.134 | Mean O.D. Allogenic ([2]; 30 um): 0.199 O.D.; Mean O.D. Syngeneic ([2]; 30 um): 0.164 O.D.; Mean O.D. Allogenic ([2]; 100 um): 0.102 O.D.; Mean O.D. Syngeneic ([2]; 100 um): 0.025 O.D.; Mean O.D. Allogenic ([2]; 300 um): 0.032 O.D.; Mean O.D. Syngeneic ([2]; 300 um): 0.022 O.D.; inhibition at 3 µM ([2]; 3 um): 34%; inhibition at 10 µM ([2]; 10 um): 22%; inhibition at 30 µM ([2]; 30 um): 58%; inhibition at 100 µM ([2]; 100 um): 7%; inhibition at 300 µM ([2]; 300 um): 88% |
| CCCCC/C=C\COC[C@H]1O[C@](COC/C=C\CCCCC)(OC)[C@@H](O)[C@@H]1O [Ig, methyl 1,6-di-O-(cis,2-octenyl)-α-D-fructofuranoside] | 3 | -10 | 10 | 4 | 11 | 87 | 84 | 99 | -7 | -12 | 9 | 5 | 20 | 73 | 77 | 100 | 0.412 | 0.155 | 0.421 | 0.182 | Mean O.D. Allogenic ([2]; 30 um): 0.399 O.D.; Mean O.D. Syngeneic ([2]; 30 um): 0.157 O.D.; Mean O.D. Allogenic ([2]; 100 um): 0.419 O.D.; Mean O.D. Syngeneic ([2]; 100 um): 0.173 O.D.; Mean O.D. Allogenic ([2]; 300 um): 0.474 O.D.; Mean O.D. Syngeneic ([2]; 300 um): 0.037 O.D.; inhibition at 3 µM ([2]; 3 um): -34%; inhibition at 10 µM ([2]; 10 um): -24%; inhibition at 30 µM ([2]; 30 um): -26%; inhibition at 100 µM ([2]; 100 um): -28%; inhibition at 300 µM ([2]; 300 um): -81% |
